Like-named read-outs stand apart in the source and are kept apart here.
Experiments:
Caco-2 cell monolayer [1] = test: Caco-2 bidirectional transport, efflux ratio; details: Caco-2 cell line (21 days); for efflux ratio: Papp B-A/Papp A-B
Source text: (§3) Human-derived colorectal adenocarcinoma cell line Caco-2 cell monolayer model was used to study the bidirectional transport of the target compounds from the apical (AP) side to the basolateral (BL) side and from BL side to AP side. HPLC was used for quantitative analysis to calculate transport parameters, apparent permeability coefficient (Papp) and the efflux ratio.

A375 melanoma = test: MTT proliferation inhibition, A375; assay type: cell-based; details: Homo sapiens, A-375, read-out: Proliferation inhibition rate, A375 Melanoma
Source text: (§1) 1. Cytotoxicity Assay Using Human Tumor Cell Lines
(§2) Paclitaxel was used as the positive drug.

BGC-823 gastric cancer = test: MTT proliferation inhibition, BGC-823; assay type: cell-based; details: Homo sapiens, BGC-823, read-out: Proliferation inhibition rate, BGC-823 Gastric cancer
Source text: as §1, §2

Du145 prostate cancer = test: MTT proliferation inhibition, Du145; assay type: cell-based; details: Homo sapiens, DU-145, read-out: Proliferation inhibition rate, DU145 Prostate cancer
Source text: as §1, §2

[2] = Caco-2 cell monolayer membrane transport assay (Papp and recovery); assay type: in vitro ADME; details: human
Source text: Caco-2 Cell Monolayer Membrane Transport Assay
as §3

A2780 ovarian cancer = test: MTT proliferation inhibition, A2780; assay type: cell-based; details: Homo sapiens, A2780, read-out: Proliferation inhibition rate, A2780 Ovarian cancer
Source text: as §1, §2

LN-18 = test: MTT proliferation inhibition, LN-18; assay type: cell-based; details: Homo sapiens, LN-18, read-out: Proliferation inhibition rate, LN-18 Gastric canser
Source text: as §1, §2

[3] = test system: MDA-MB-436 breast cancer cells; test: MTT proliferation inhibition, MDA-MB-436; assay type: cell-based; details: Homo sapiens, MDA-MB-436, read-out: Proliferation inhibition rate, MDA-MB-436 Breast cancer
Source text: as §1, §2

B16 melanoma = test: MTT proliferation inhibition, B16; assay type: cell-based; details: B16, read-out: Proliferation inhibition rate, B16 Melanoma
Source text: as §1, §2

LNCaP prostate cancer = test: MTT proliferation inhibition, LNCaP; assay type: cell-based; details: Homo sapiens, read-out: Proliferation inhibition rate, LNCaP Prostate cancer
Source text: as §1, §2

HT-29 colon cancer = test: MTT proliferation inhibition, HT-29; assay type: cell-based; details: Homo sapiens, HT-29, read-out: Proliferation inhibition rate, HT29 Colon cancer
Source text: as §1, §2

[4] = test system: A549 non-small cell lung cancer; test: MTT proliferation inhibition, A549; assay type: cell-based; details: Homo sapiens, A549, read-out: Proliferation inhibition rate, A549 Non-small cell lung cancer
Source text: as §1, §2

[5] = test system: NCI-H460 non-small cell lung cancer; test: MTT proliferation inhibition, NCI-H460; assay type: cell-based; details: Homo sapiens, NCI-H460, read-out: Proliferation inhibition rate, NCI-H460 Non-small cell lung cancer
Source text: as §1, §2

Hela cervical cancer = test: MTT proliferation inhibition, HeLa; assay type: cell-based; details: Homo sapiens, read-out: Proliferation inhibition rate, HeLa Uterin cancer
Source text: as §1, §2

[6] = test system: breast cancer cell line MCF-7; test: IC50 on breast cancer cell line MCF-7; assay type: cell-based; details: Homo sapiens
HL-60 leukemia = test: MTT proliferation inhibition, HL-60; assay type: cell-based; details: Homo sapiens, HL-60, read-out: Proliferation inhibition rate, HL60 Leukemia
Source text: as §1, §2

[7] = test system: MCF-7 breast cancer cells; test: MTT proliferation inhibition, MCF-7; assay type: cell-based; details: Homo sapiens, MCF7, read-out: Proliferation inhibition rate, MCF-7 Breast cancer
Source text: as §1, §2

HCT 116 colon cancer = test: MTT proliferation inhibition, HCT 116; assay type: cell-based; details: Homo sapiens, HCT-116, read-out: Proliferation inhibition rate, HCT 116 Colon cancer
Source text: as §1, §2

K562 leukemia = test: MTT proliferation inhibition, K562; assay type: cell-based; details: Homo sapiens, K562, read-out: Proliferation inhibition rate, K562 Leukemia
Source text: as §1, §2

[8] = Caco-2 bidirectional transport, efflux ratio; details: human, Caco-2
Source text: as §3

Caco-2 cell monolayer [9] = details: human
Source text: as §3

[10] = reported value; cited from earlier work
[11] = Caco-2, Caco-2, A-B, Mean, read-out: Papp A-B, Mean
[12] = Caco-2, Caco-2, A-B, Mean, read-out: Recovery rate in mass, Mean
[13] = Caco-2, Caco-2, A-B, Sample-01, read-out: Papp A-B, Sample-01
[14] = Caco-2, Caco-2, A-B, Sample-01, read-out: Recovery rate in mass, Sample-01
[15] = Caco-2, Caco-2, A-B, Sample-02, read-out: Papp A-B, Sample-02
[16] = Caco-2, Caco-2, A-B, Sample-02, read-out: Recovery rate in mass, Sample-02
[17] = MCF7, 72 h, read-out: MCF-7 (IC50, nM)

SMILES | inhibition at 1 µM (A375 melanoma) | inhibition at 1 µM (BGC-823 gastric cancer) | inhibition at 1 µM (Du145 prostate cancer) | Papp A→B [2, 11] | recovery [2, 12] | Papp A→B [2, 13] | recovery [2, 14] | Papp A→B [2, 15] | recovery [2, 16] | inhibition at 1 µM (A2780 ovarian cancer) | inhibition at 1 µM (LN-18) | inhibition at 1 µM [3] | inhibition at 1 µM (B16 melanoma) | inhibition at 1 µM (LNCaP prostate cancer) | inhibition at 1 µM (HT-29 colon cancer) | inhibition at 1 µM [4] | inhibition at 1 µM [5] | inhibition at 1 µM (Hela cervical cancer) | IC50 [6, 17] | inhibition at 1 µM (HL-60 leukemia) | also measured
CO[C@H]1C(=O)[C@]2(C)[C@@H](OC)C[C@H]3OC[C@@]3(OC(C)=O)[C@H]2[C@H](OC(=O)c2ccccc2)[C@]23OC(=O)O[C@H]2[C@H](OC(=O)[C@H](O)[C@@H](NC(=O)OC(C)(C)C)c2ccccc2)C(C)=C1C3(C)C [PCMI-01] | 90.8% | 93.1% | 87.8% | 4.17 ×10⁻⁶ cm/s | 54.7% | 4.47 ×10⁻⁶ cm/s | 48.2% | 3.87 ×10⁻⁶ cm/s | 61.2% | 96.7% | 92.8% | 81.5% | 78.1% | 80.7% | 89.4% | 66.9% | 87.9% | 101% | 2.1 ± 0.08 nM | 96.6% | Papp A-B (Caco-2 cell monolayer [1]): 2.83 10^−6 cm/s; Papp B-A (Caco-2 cell monolayer [1]): 18.20 10^−6 cm/s; efflux ratio (Caco-2 cell monolayer [1]): 6.42; inhibition at 1 µM [7]: 96%; inhibition at 1 µM (HCT 116 colon cancer): 59.7%; inhibition at 1 µM (K562 leukemia): 92.8%
CO[C@H]1C(=O)[C@]2(C)CC[C@H]3OC[C@@]3(OC(C)=O)[C@H]2[C@H](OC(=O)c2ccccc2)[C@]23OC(=O)O[C@H]2[C@H](OC(=O)[C@H](O)[C@@H](NC(=O)OC(C)(C)C)c2ccccc2)C(C)=C1C3(C)C [PCMI-07] | 92.5% | 94.1% | 86.8% | 2.64 ×10⁻⁶ cm/s | 50.3% | 3.24 ×10⁻⁶ cm/s | 54.2% | 2.05 ×10⁻⁶ cm/s | 46.3% | 95% | 96.1% | 80.5% | 78.6% | 84.9% | 86.6% | 74.9% | 82.7% | 100% | 4.49 ± 0.02 nM | 97.5% | Papp A-B (Caco-2 cell monolayer [1]): 2.64 10^−6 cm/s; Papp B-A (Caco-2 cell monolayer [1]): 25.26 10^−6 cm/s; efflux ratio (Caco-2 cell monolayer [1]): 9.56; inhibition at 1 µM [7]: 87.1%; inhibition at 1 µM (HCT 116 colon cancer): 68.8%; inhibition at 1 µM (K562 leukemia): 94%
COC(=O)O[C@H]1C[C@H]2OC[C@@]2(OC(C)=O)[C@H]2[C@H](OC(=O)c3ccccc3)[C@]34OC(=O)O[C@H]3[C@H](OC(=O)[C@H](O)[C@@H](NC(=O)N(C)C)c3ccccc3)C(C)=C([C@@H](OC)C(=O)[C@]12C)C4(C)C [PCMI-19] | 95.2% | 93.3% | 90% | 3.92 ×10⁻⁶ cm/s | 74.5% | 3.78 ×10⁻⁶ cm/s | 78.2% | 4.05 ×10⁻⁶ cm/s | 70.7% | 94.2% | 93.9% | 83.6% | 83.7% | 87.2% | 87.2% | 80.2% | 87.3% | 99.6% | 6.58 ± 0.02 nM | 96.9% | Papp A→B [8]: 2.79 ×10⁻⁶ cm/s; Papp B→A [8]: 21.3 ×10⁻⁶ cm/s; efflux ratio [8]: 7.65; inhibition at 1 µM [7]: 89.7%; inhibition at 1 µM (HCT 116 colon cancer): 67.3%; inhibition at 1 µM (K562 leukemia): 92.7%
COC(=O)O[C@H]1C[C@H]2OC[C@@]2(OC(C)=O)[C@H]2[C@H](OC(=O)c3ccccc3)[C@]34OC(=O)O[C@H]3[C@H](OC(=O)[C@H](O)[C@H](CC(C)C)NC(=O)OC(C)(C)C)C(C)=C([C@@H](OC)C(=O)[C@]12C)C4(C)C [PCMI-20] | 93.4% | 95% | 88.6% | 0.92 ×10⁻⁶ cm/s | 86.5% | 1.08 ×10⁻⁶ cm/s | 89.8% | 0.75 ×10⁻⁶ cm/s | 83.3% | 95.5% | 94.3% | 81.1% | 81.6% | 86% | 87.2% | 80.4% | 86.8% | 101% | 2.94 ± 0.04 nM | 96.9% | Papp B-A (Caco-2 cell monolayer [1]): 7.16 10^−6 cm/s; efflux ratio (Caco-2 cell monolayer [1]): 7.81; Papp A→B [8]: 0.92 ×10⁻⁶ cm/s; inhibition at 1 µM [7]: 85.4%; inhibition at 1 µM (HCT 116 colon cancer): 68.6%; inhibition at 1 µM (K562 leukemia): 93.8%
CC(=O)O[C@H]1C(=O)[C@@]2(C)[C@H]([C@H](OC(=O)c3ccccc3)[C@]3(O)C[C@H](OC(=O)[C@H](O)[C@@H](NC(=O)c4ccccc4)c4ccccc4)C(C)=C1C3(C)C)[C@]1(OC(C)=O)CO[C@@H]1C[C@@H]2O [Paclitaxel, reference compound] |  |  |  |  |  |  |  |  |  |  |  |  |  |  |  |  |  |  |  |  | Papp A-B (Caco-2 cell monolayer [9]): 0.97 10^−6 cm/s; Papp B-A (Caco-2 cell monolayer [9]): 33.39 10^−6 cm/s; efflux ratio (Caco-2 cell monolayer [9]): 34.38; Papp A→B ([2]; Caco-2, Papp A-B, Mean): 0.97 ×10⁻⁶ cm/s; Papp A→B ([2]; Caco-2, Papp A-B, Sample-01): 1.02 ×10⁻⁶ cm/s; Papp A→B ([2]; Caco-2, Papp A-B, Sample-02): 0.93 ×10⁻⁶ cm/s; recovery ([2]; Caco-2, Recovery rate in mass, Mean): 101%; recovery ([2]; Caco-2, Recovery rate in mass, Sample-01): 94.6%; recovery ([2]; Caco-2, Recovery rate in mass, Sample-02): 107%; IC50 ([6]; MCF7, 72 hours exposure, mean±SD of three experiments, read-out: MCF-7 (IC50)): 7.05 nM; reported absolute oral bioavailability [10]: less than 6%
